Measured values taken from US6479435B1, “Diaryl ethers and processes for their preparation and herbicidal and desiccant compositions containing them” (ISK Americas Incorporated, priority 1997, dated 2002).

Legend:
Format in all cases: in vivo
[1] = system: common ragweed (Ambrosia artemisiifolia L., AMBEL); experiment: Pre-emerge greenhouse herbicide test, phytotoxicity rating; conditions: 14 days after application, rating scale 0-100
How it was run: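 Seeds sown in sandy loam mix one day before track-sprayer application of compounds in acetone at 125–1000 g ai/ha (187 l/ha), then surface-watered to incorporate and bottom-watered. Visual rating 14 days after application on a 0–100 scale (0 = no damage, 100 = all plants dead).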

[2] = system: common ragweed (Ambrosia artemisiifolia L., AMBEL); experiment: Post-emerge greenhouse herbicide test, phytotoxicity rating; conditions: 14 days after application, scale 0-100
How it was run: (§1)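 Compounds in acetone with 0.25% v/v non-ionic surfactant were track-sprayed at 187 l/ha over plants at the 2-3 leaf stage, at 63 to 1000 g ai/ha. Pots were bottom-watered. Injury was scored visually 14 days later on a 0-100 scale, where 0 is no damage and 100 is complete plant death.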

[3] = system: barnyardgrass (Echinochloa crusgalli, ECHCG); experiment: as above; conditions: Echinochloa crus-galli, post-emergence, 336 h, 14 days after application, scale 0-100; for pest or weed control at 63 g/ha: rate 63 g ai/ha; for pest or weed control at 500 g/ha: rate 500 g ai/ha
How it was run: as §1

[4] = system: ivyleaf morningglory (Ipomoea hederacea, IPOHE); experiment: as above; conditions: Ipomoea, post-emergence, 336 h, 14 days after application, scale 0-100; for pest or weed control at 63 g/ha: rate 63 g ai/ha; for pest or weed control at 500 g/ha: rate 500 g ai/ha
How it was run: as §1

[5] = system: velvetleaf (Abutilon theophrasti, ABUTH); experiment: as above; conditions: Abutilon theophrasti, post-emergence, 336 h, 14 days after application, scale 0-100; for pest or weed control at 63 g/ha: rate 63 g ai/ha; for pest or weed control at 500 g/ha: rate 500 g ai/ha
How it was run: as §1

Broadleaf Weeds = experiment: Pre-emergent application in combination with other herbicides, percent control of broadleaf weeds; conditions: 62.5 g ai/ha
Experimental: (§2) All plants were grown in 10 cm square plastic pots which were filled with a sandy loam soil mix. For preemerge tests, seeds were planted one day prior to application of the test compounds. Immediately after application, test units of the pre-emerge applications were watered at the soil surface to incorporate the test materials. Subsequently, these test units were bottom-watered.
(§3) All test compounds were dissolved in acetone and applied to the test units in a volume of 187 l/ha. […] Plants were arranged on a shelf so that the top of the canopy (post-emerge) or top of the soil surface (pre-emerge) was 40-45 cm below the nozzle. Pressurized air was used to force the test solution through the nozzle as it was mechanically advanced (via electrically driven chain drive) over the top of all test plants/pots. This application simulates a typical commercial field herbicide application.
(§4) At 14 days after application of the test materials, phytotoxicity ratings were recorded. A rating scale of 0-100 was used as previously described in Research Methods in Weed Science, 2nd edition, B. Truelove, Ed., Southern Weed Science Society, Auburn University, Auburn, Ala., 1977. Briefly, “0” corresponds to no damage and “100” corresponds to complete death of all plants in the test unit. This scale was used both to determine efficacy against weed species and damage to crop species. Herbicide activity data for various compounds of this invention, which are shown by compound number in Tables 1-9, are shown in Tables 13 and 14.
(§5) (Note: Weed species abbreviations are from the Composite List of Weeds published by the Weed Science Society of America, 1989.)
The following examples illustrate the utility of combinations of compounds of this invention and existing herbicides. The methods used are identical to those for the application of single compounds except the commercial formulations of existing herbicides were added to the spray mixture in the appropriate amounts before spraying. […]
(§6) Combination Example 2. Pre-emergent Application of Compound 9-1 with Dimethenamid

Grass Weeds = experiment: Pre-emergent application in combination with other herbicides, percent control of grass weeds; conditions: 62.5 g ai/ha
Experimental: as §2, §3, §4, §5
The following examples illustrate the utility of combinations of compounds of this invention and existing herbicides. The methods used are identical to those for the application of single compounds except the commercial formulations of existing herbicides were added to the spray mixture in the appropriate amounts before spraying.
Combination Example 1. Pre-emergent Application of Compound 9-1 with Metolachlor
as §6

In the case of `O=c1n(-c2cc(Oc3ncccc3C(F)(F)F)c(Cl)cc2F)c(=S)n2n1CCCC2` [Compound 8-18, 2-[4-chloro-2-fluoro-5-(3-trifluoromethyl-2pyridyloxy)phenyl]hexahydro-3-thioxo-1H-[1,2,4]triazolo[1,2-a]pyridazin-1-one], the AMBEL phytotoxicity rating ([1]; Rate 125 g al/ha) is reported as 100, the AMBEL phytotoxicity rating ([1]; Rate 500 g al/ha) is reported as 95 and the “phytotoxicity rating AMBEL” value ([2]; rate 63 g ai/ha) is reported as 95. The “phytotoxicity rating AMBEL” value ([2]; rate 500 g ai/ha) was 60, the pest or weed control at 63 g/ha [3] was 70% and the pest or weed control at 500 g/ha [3] was 70%. It also gave a pest or weed control at 63 g/ha [4] of 100%, a pest or weed control at 500 g/ha [4] of 100% and a pest or weed control at 63 g/ha [5] of 100%. It also gave a pest or weed control at 500 g/ha [5] of 100%.

With `O=c1n(-c2cc(Oc3ncccn3)c(Cl)cc2F)c(=S)n2n1CCCC2` [Compound 8-29, 2-[4-chloro-2-fluoro-5-(2-pyrimidyloxy)phenyl]hexahydro-3-thioxo-1H-[1,2,4]triazolo[1,2-a]pyridazin-1-one] the AMBEL phytotoxicity rating ([1]; Rate 125 g al/ha) was 100, the AMBEL phytotoxicity rating ([1]; Rate 500 g al/ha) was 100 and the “phytotoxicity rating AMBEL” value ([2]; rate 63 g ai/ha) was 90. The “phytotoxicity rating AMBEL” value ([2]; rate 500 g ai/ha) was 100, the pest or weed control at 63 g/ha [3] was 80% and the pest or weed control at 500 g/ha [3] was 100%. The pest or weed control at 63 g/ha [4] was 100%, the pest or weed control at 500 g/ha [4] was 100% and the pest or weed control at 63 g/ha [5] was 100%. It also gave a pest or weed control at 500 g/ha [5] of 100%.

With `Nn1c(C(F)(F)F)cc(=O)n(-c2cc(Oc3ncccc3[N+](=O)[O-])c(Cl)cc2F)c1=O` [Compound 9-1, 1-amino-3-[4-chloro-2-fluoro-5-(3-nitro-2-pyridyloxy)phenyl]-6-trifluoromethyl-1,2,3,4-tetrahydropyrimidine-2,4-dione] the pest or weed control at 63 g/ha [3] was 30%, the pest or weed control at 500 g/ha [3] was 100% and the pest or weed control at 63 g/ha [4] was 100%. The pest or weed control at 500 g/ha [4] was 100%, the pest or weed control at 63 g/ha [5] was 100% and the pest or weed control at 500 g/ha [5] was 100%. The “Percent Control of Broadleaf Weeds ABUTH” value (Broadleaf Weeds) was 95%, the “Percent Control of Broadleaf Weeds ABUTH” value (Broadleaf Weeds; Combination Example 2) was 95% and the “Percent Control of Broadleaf Weeds AMARE” value (Broadleaf Weeds) was 100%. The “Percent Control of Broadleaf Weeds AMARE” value (Broadleaf Weeds; Combination Example 2) was 100%, the “Percent Control of Broadleaf Weeds AMBEL” value (Broadleaf Weeds) was 40% and the “Percent Control of Broadleaf Weeds AMBEL” value (Broadleaf Weeds; Combination Example 2) was 40%. For the same compound, the “Percent Control of Broadleaf Weeds CASOB” value (Broadleaf Weeds) was 10%, the “Percent Control of Broadleaf Weeds CASOB” value (Broadleaf Weeds; Combination Example 2) was 10% and the “Percent Control of Broadleaf Weeds CHEAL” value (Broadleaf Weeds) was 100%. For the same compound, the “Percent Control of Broadleaf Weeds CHEAL” value (Broadleaf Weeds; Combination Example 2) was 100%, the “Percent Control of Broadleaf Weeds IPOHE” value (Broadleaf Weeds) was 50% and the “Percent Control of Broadleaf Weeds IPOHE” value (Broadleaf Weeds; Combination Example 2) was 50%. The “Percent Control of Grass Weeds DIGSA” value (Grass Weeds) was 20%, the “Percent Control of Grass Weeds DIGSA” value (Grass Weeds; Combination Example 2) was 20% and the “Percent Control of Grass Weeds ECHCG” value (Grass Weeds) was 0%. For the same compound, the “Percent Control of Grass Weeds ECHCG” value (Grass Weeds; Combination Example 2) was 0%, the “Percent Control of Grass Weeds SETVI” value (Grass Weeds) was 90% and the “Percent Control of Grass Weeds SETVI” value (Grass Weeds; Combination Example 2) was 90%. The “Percent Control of Grass Weeds SORHA” value (Grass Weeds) was 0% and the “Percent Control of Grass Weeds SORHA” value (Grass Weeds; Combination Example 2) was 0%.

For `Nn1c(C(F)(F)F)cc(=O)n(-c2cc(Oc3ccc([N+](=O)[O-])cc3C(F)(F)F)c(Cl)cc2F)c1=O` [Compound 9-22, 1-Amino-3-[4-chloro-2-fluoro-5-(4-nitro-2-trifluoromethylphenoxy)phenyl]-6-trifluoromethyl-1,2,3,4-tetrahydropyrimidine-2,4-dione], the pest or weed control at 63 g/ha [3] was 20%, the pest or weed control at 500 g/ha [3] was 90% and the pest or weed control at 63 g/ha [4] was 100%. It also gave a pest or weed control at 500 g/ha [4] of 100%, a pest or weed control at 63 g/ha [5] of 100% and a pest or weed control at 500 g/ha [5] of 100%.

`Nn1c(C(F)(F)F)cc(=O)n(-c2cc(Oc3cc([N+](=O)[O-])cc(C(F)(F)F)c3)c(Cl)cc2F)c1=O` [Compound 9-23, 1-Amino-3-[4-chloro-2-fluoro-5-(3-nitro-5-trifluoromethylphenoxy)phenyl]-6-trifluoromethyl-1,2,3,4-tetrahydropyrimidine-2,4-dione] gave a pest or weed control at 63 g/ha [3] of 0%, a pest or weed control at 500 g/ha [3] of 50% and a pest or weed control at 63 g/ha [4] of 50%. The pest or weed control at 500 g/ha [4] was 75%, the pest or weed control at 63 g/ha [5] was 45% and the pest or weed control at 500 g/ha [5] was 90%.

In the case of `Nn1c(C(F)(F)F)cc(=O)n(-c2cc(Oc3ccccc3C(F)(F)F)c(Cl)cc2F)c1=O` [Compound 9-24, 1-amino-3-[4-chloro-2-fluoro-5-(2-trifluoromethylphenoxy)phenyl]-6-trifluoromethyl-1,2,3,4-tetrahydropyrimidine-2,4-dione], the pest or weed control at 63 g/ha [3] is reported as 30%, the pest or weed control at 500 g/ha [3] is reported as 90% and the pest or weed control at 63 g/ha [4] is reported as 100%. It also gave a pest or weed control at 500 g/ha [4] of 100%, a pest or weed control at 63 g/ha [5] of 100% and a pest or weed control at 500 g/ha [5] of 100%.

Work on `Nn1c(C(F)(F)F)cc(=O)n(-c2cc(Oc3ccccc3)c(Cl)cc2F)c1=O` [Compound 9-26, 1-Amino-3-[4-chloro-2-fluoro-5-phenoxyphenyl]-6-trifluoromethyl-1,2,3,4-tetrahydropyrimidine-2,4-dione] yielded a pest or weed control at 63 g/ha [3] of 80%, a pest or weed control at 500 g/ha [3] of 100% and a pest or weed control at 63 g/ha [4] of 100%. For the same compound, the pest or weed control at 500 g/ha [4] was 100%, the pest or weed control at 63 g/ha [5] was 100% and the pest or weed control at 500 g/ha [5] was 100%.

Work on `Nn1c(C(F)(F)F)cc(=S)n(-c2cc(Oc3ccc(Cl)cn3)c(Cl)cc2F)c1=O` [Compound 9-28, 1-amino-3-[4-chloro-2-fluoro-5-(5-chloro-2-pyridyloxy)phenyl]-6-trifluoromethyl-1,2,3,4tetrahydro-2-oxo-4-thioxopyrimidine] yielded a pest or weed control at 63 g/ha [3] of 0%, a pest or weed control at 500 g/ha [3] of 10% and a pest or weed control at 63 g/ha [4] of 95%. The pest or weed control at 500 g/ha [4] was 100%, the pest or weed control at 63 g/ha [5] was 90% and the pest or weed control at 500 g/ha [5] was 100%.
